Experimental data from ChEMBL document CHEMBL1158849, “New bioactive triterpenoids from Melia volkensii” (J Nat Prod, 1998).
≈ marks a conversion by molar mass, not a printed value.

Columns and labels:
A498 = assay: Cytotoxicity against human A498 cells after 7 days by MTT assay; assay type: functional; settings: A498, 168 h, read-out: ED50 (the source's name)
MIA PaCa-2 = assay: Cytotoxicity against human MIAPaCa2 cells after 7 days by MTT assay; assay type: functional; settings: MIA PaCa-2, 168 h, read-out: ED50 (the source's name)
MCF7 = assay: Cytotoxicity against human MCF7 cells after 7 days by MTT assay; assay type: functional; settings: MCF7, 168 h, read-out: ED50 (the source's name)
PC-3 = assay: Cytotoxicity against human PC3 cells after 7 days by MTT assay; assay type: functional; settings: PC-3, 168 h, read-out: ED50 (the source's name)
HT-29 = assay: Cytotoxicity against human HT-29 cells after 7 days by MTT assay; assay type: functional; settings: HT-29, 168 h, read-out: ED50 (the source's name)
Aedes aegypti = assay: Cytotoxicity against yellow fever mosquitoes; assay type: functional
A549 = assay: Cytotoxicity against human A549 cells after 7 days by MTT assay; assay type: functional; settings: A549, 168 h, read-out: ED50 (the source's name)
[1] = Toxicity against brine shrimp larvae; assay type: organism-based; settings: artemia, in vivo

SMILES | EC50 (A498) | EC50 (MIA PaCa-2) | EC50 (MCF7) | EC50 (PC-3) | EC50 (HT-29) | LC50 (Aedes aegypti) | EC50 (A549) | LC50 [1]
CC(=O)O[C@@H]1C[C@H](OC(=O)c2ccccc2)[C@@]2(C)[C@H]3[C@H](OC[C@]13C)[C@@H](O)[C@@]1(C)C3=CC[C@@H](c4ccoc4)[C@]3(C)CC[C@@H]12 [MELIAVOLKININ] | 26.9 µg/mL (≈ 46.8 µM) | 16.7 µg/mL (≈ 29.1 µM) | 27.8 µg/mL (≈ 48.4 µM) | 1.02 µg/mL (≈ 1.77 µM) | 28.1 µg/mL (≈ 48.8 µM) | 59.7 µg/mL (≈ 104 µM) | 25.4 µg/mL (≈ 44.1 µM) | 5.37 µg/mL (≈ 9.34 µM)
CC(=O)O[C@H]1C[C@@H](OC(=O)c2ccccc2)C(C)(C)[C@@H]2C[C@@H](OC(C)=O)[C@@]3(C)C4=CC(=O)[C@@H](C5COC(C)(C)C(=O)C(=O)C5)[C@]4(C)CC[C@@H]3[C@@]12C (some centres not stated) [16,23,24-TRIKETOMELIANIN B] | 4.15 µg/mL (≈ 5.89 µM) | 3.32 µg/mL (≈ 4.71 µM) | 2.61 µg/mL (≈ 3.7 µM) | 2.1 µg/mL (≈ 2.98 µM) | 6.36 µg/mL (≈ 9.02 µM) |  | 18.2 µg/mL (≈ 25.8 µM) | 
COc1cccc2c1C(=O)c1c(O)c3c(c(O)c1C2=O)C[C@@](O)(C(=O)CO)C[C@@H]3O[C@H]1C[C@H](N)[C@H](O)[C@H](C)O1 [DOXORUBICIN] | 0.00424 µg/mL (≈ 0.0078 µM) | 0.0133 µg/mL (≈ 0.0245 µM) | 0.253 µg/mL (≈ 0.465 µM) | 0.0276 µg/mL (≈ 0.0508 µM) | 0.0351 µg/mL (≈ 0.0646 µM) |  |  | 
CC(=O)O[C@H]1C[C@@H](OC(C)=O)[C@@]2(C)CO[C@@H]3[C@@H](O)[C@@]4(C)C5=CC[C@@H](c6ccoc6)[C@]5(C)CC[C@@H]4[C@]1(C)[C@@H]32 | 3.35 µg/mL (≈ 6.53 µM) | 3.06 µg/mL (≈ 5.97 µM) | 2.42 µg/mL (≈ 4.72 µM) | 2.78 µg/mL (≈ 5.42 µM) | 3.73 µg/mL (≈ 7.28 µM) | 29.2 µg/mL (≈ 56.9 µM) | 3.29 µg/mL (≈ 6.42 µM) | 10 µg/mL (≈ 19.5 µM)
CC(=O)O[C@H]1C[C@@H](OC(=O)c2ccccc2)C(C)(C)[C@@H]2C[C@@H](OC(C)=O)[C@@]3(C)C4=CC[C@@H](C5COC(C)(C)[C@@H](O)[C@H](O)C5)[C@]4(C)CC[C@@H]3[C@@]12C (some centres not stated) [MELIANIN B] | 3.67 µg/mL (≈ 5.28 µM) | 2.09 µg/mL (≈ 3.01 µM) | 3.29 µg/mL (≈ 4.73 µM) | 0.393 µg/mL (≈ 0.566 µM) | 2.15 µg/mL (≈ 3.09 µM) | > 100 µg/mL | 1.68 µg/mL (≈ 2.42 µM) | > 100 µg/mL
CC(=O)O[C@H]1C[C@@H](OC(=O)c2ccccc2)C(C)(C)[C@@H]2C[C@@H](OC(C)=O)[C@@]3(C)C4=CC[C@@H](C5COC(C)(C)C(=O)C(=O)C5)[C@]4(C)CC[C@@H]3[C@@]12C (some centres not stated) | 4.78 µg/mL (≈ 6.92 µM) | 0.013 µg/mL (≈ 0.0188 µM) | 6.13 µg/mL (≈ 8.87 µM) | 0.0281 µg/mL (≈ 0.0407 µM) | 6.25 µg/mL (≈ 9.05 µM) |  | 1.07 µg/mL (≈ 1.55 µM) | 
CC(=O)O[C@H]1C[C@@H](OC(=O)c2ccccc2)C(C)(C)[C@@H]2C[C@@H](OC(C)=O)[C@@]3(C)C4=CC[C@@H](C5COC(=O)C5)[C@]4(C)CC[C@@H]3[C@@]12C (some centres not stated) [MELIANIN C] | 26.5 µg/mL (≈ 42.7 µM) | 20.6 µg/mL (≈ 33.2 µM) | 14.5 µg/mL (≈ 23.3 µM) | 0.473 µg/mL (≈ 0.762 µM) | 18.1 µg/mL (≈ 29.1 µM) |  | 21.9 µg/mL (≈ 35.2 µM) | 
